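Dose response: 5 concentrations. Exposure: 48 h. Format: 96-well plates. Endpoint: linear interpolation; highest concentration if not reached. GI50: concentration for 50% inhibition of growth.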 Calls of active or inactive are those of the source. No stated cut-off is given here; in the data, active = GI50 up to about 1.1 µM and inactive = higher.
Tests used:
Test in all cases: DTP human tumour cell line panel, 48 h
[1] = system: SNB-75
[2] = system: OVCAR-5
[3] = system: SK-MEL-2
[4] = system: RXF 393
[5] = system: NCI-H460
[6] = system: SF-268
[7] = system: OVCAR-4
[8] = system: 786-0
[9] = system: IGROV-1
[10] = system: NCI-H23
[11] = system: OVCAR-3
[12] = system: SN12C
[13] = system: UACC-62
[14] = system: LOX IMVI
[15] = system: UO-31
[16] = system: EKVX
[17] = system: HOP-62
[18] = system: M19-MEL
[19] = system: HCC 2998
[20] = system: SW-620
[21] = system: UACC-257
[22] = system: TK-10
[23] = system: CAKI-1
[24] = system: SK-OV-3
[25] = system: SF-295
[26] = system: DMS-114
[27] = system: KM12
[28] = system: A549
[29] = system: HCT-116
[30] = system: LXFL 529
[31] = system: U-251
[32] = system: M14
[33] = system: OVCAR-8
[34] = system: HT-29
[35] = system: RPMI-8226
[36] = system: HOP-92
[37] = system: DMS-273
[38] = system: KM-20L2
[39] = system: COLO 205
[40] = system: DLD-1
[41] = system: SNB-78
[42] = system: HCT-15
[43] = system: A498
[44] = system: HOP-18
[45] = system: SK-MEL-28
[46] = system: NCI-H226
[47] = system: SF-539
[48] = system: XF498
[49] = system: SNB-19
[50] = system: ACHN
[51] = system: Malme-3M
[52] = system: MOLT-4
[53] = system: K562
[54] = system: NCI-H522
[55] = system: SK-MEL-5
[56] = system: SR
[57] = system: HL-60
[58] = system: CCRF-CEM

SMILES: N#CC(C(=N/O)/C(=N/O)C(C#N)c1ccc(Cl)cc1)c1ccc(Cl)cc1 (stereo not given)
- GI50 [1]: 42 µM (inactive)
- GI50 [2]: > 100 µM (inactive)
- GI50 [3]: > 100 µM (inactive)
- GI50 [4]: 46.7 µM (inactive)
- GI50 [5]: > 100 µM (inactive)
- GI50 [6]: > 100 µM (inactive)
- GI50 [7]: > 100 µM (inactive)
- GI50 [8]: > 100 µM (inactive)
- GI50 [9]: > 100 µM (inactive)
- GI50 [10]: 92.5 µM (inactive)
- GI50 [11]: > 100 µM (inactive)
- GI50 [12]: > 100 µM (inactive)
- GI50 [13]: 91.4 µM (inactive)
- GI50 [14]: 82.8 µM (inactive)
- GI50 [15]: > 100 µM (inactive)
- GI50 [16]: > 100 µM (inactive)
- GI50 [17]: > 100 µM (inactive)
- GI50 [18]: > 100 µM (inactive)
- GI50 [19]: 84.1 µM (inactive)
- GI50 [20]: 76.7 µM (inactive)
- GI50 [21]: > 100 µM (inactive)
- GI50 [22]: > 100 µM (inactive)
- GI50 [23]: 42.9 µM (inactive)
- GI50 [24]: > 100 µM (inactive)
- GI50 [25]: > 100 µM (inactive)
- GI50 [26]: > 100 µM (inactive)
- GI50 [27]: > 100 µM (inactive)
- GI50 [28]: > 100 µM (inactive)
- GI50 [29]: > 100 µM (inactive)
- GI50 [30]: 30.4 µM (inactive)
- GI50 [31]: > 100 µM (inactive)
- GI50 [32]: > 100 µM (inactive)
- GI50 [33]: 40 µM (inactive)
- GI50 [34]: > 100 µM (inactive)
- GI50 [35]: 40.5 µM (inactive)
- GI50 [36]: > 100 µM (inactive)
- GI50 [37]: > 100 µM (inactive)
- GI50 [38]: > 100 µM (inactive)
- GI50 [39]: 64.6 µM (inactive)
- GI50 [40]: > 100 µM (inactive)
- GI50 [41]: 23.4 µM (inactive)
- GI50 [42]: 55.2 µM
- GI50 [43]: > 100 µM (inactive)
- GI50 [44]: 43.6 µM (inactive)
- GI50 [45]: > 100 µM (inactive)
- GI50 [46]: 75.5 µM (inactive)
- GI50 [47]: > 100 µM (inactive)
- GI50 [48]: > 100 µM (inactive)
- GI50 [49]: > 100 µM (inactive)
- GI50 [50]: > 100 µM (inactive)
- GI50 [51]: > 100 µM (inactive)

SMILES: O=C1NC2(CCCCC2)C2=C1CCCCC2
- GI50 [52]: > 100 µM (inactive)
- GI50 [1]: > 100 µM (inactive)
- GI50 [53]: > 100 µM (inactive)
- GI50 [2]: > 100 µM (inactive)
- GI50 [3]: > 100 µM (inactive)
- GI50 [4]: > 100 µM (inactive)
- GI50 [5]: > 100 µM (inactive)
- GI50 [6]: > 100 µM (inactive)
- GI50 [54]: > 100 µM (inactive)
- GI50 [7]: > 100 µM (inactive)
- GI50 [8]: > 100 µM (inactive)
- GI50 [9]: > 100 µM (inactive)
- GI50 [10]: > 100 µM (inactive)
- GI50 [11]: > 100 µM (inactive)
- GI50 [12]: > 100 µM (inactive)
- GI50 [13]: > 100 µM (inactive)
- GI50 [14]: > 100 µM (inactive)
- GI50 [15]: > 100 µM (inactive)
- GI50 [16]: > 100 µM (inactive)
- GI50 [17]: > 100 µM (inactive)
- GI50 [18]: > 100 µM (inactive)
- GI50 [20]: > 100 µM (inactive)
- GI50 [55]: > 100 µM (inactive)
- GI50 [21]: > 100 µM (inactive)
- GI50 [22]: > 100 µM (inactive)
- GI50 [23]: > 100 µM (inactive)
- GI50 [24]: > 100 µM (inactive)
- GI50 [56]: > 100 µM (inactive)
- GI50 [25]: > 100 µM (inactive)
- GI50 [26]: > 100 µM (inactive)
- GI50 [27]: > 100 µM (inactive)
- GI50 [28]: > 100 µM (inactive)
- GI50 [29]: > 100 µM (inactive)
- GI50 [30]: > 100 µM (inactive)
- GI50 [31]: > 100 µM (inactive)
- GI50 [32]: > 100 µM (inactive)
- GI50 [33]: > 100 µM (inactive)
- GI50 [34]: > 100 µM (inactive)
- GI50 [36]: > 100 µM (inactive)
- GI50 [37]: > 100 µM (inactive)
- GI50 [39]: > 100 µM (inactive)
- GI50 [40]: > 100 µM (inactive)
- GI50 [57]: > 100 µM (inactive)
- GI50 [41]: > 100 µM (inactive)
- GI50 [42]: > 100 µM
- GI50 [43]: > 100 µM (inactive)
- GI50 [44]: > 100 µM (inactive)
- GI50 [45]: > 100 µM (inactive)
- GI50 [47]: > 100 µM (inactive)
- GI50 [48]: > 100 µM (inactive)
- GI50 [49]: > 100 µM (inactive)
- GI50 [58]: > 100 µM (inactive)
- GI50 [50]: > 100 µM (inactive)
- GI50 [51]: > 100 µM (inactive)

SMILES: Cc1ccc(C)c(NC(=O)c2cccc([N+](=O)[O-])c2O)c1
- GI50 [52]: 20.3 µM (inactive)
- GI50 [1]: 20.4 µM (inactive)
- GI50 [53]: > 100 µM (inactive)
- GI50 [2]: 87.7 µM (inactive)
- GI50 [4]: 0.871 µM (active)
- GI50 [5]: 20.9 µM (inactive)
- GI50 [6]: 22 µM (inactive)
- GI50 [54]: 23.3 µM (inactive)
- GI50 [7]: 13.2 µM (inactive)
- GI50 [8]: 44.1 µM (inactive)
- GI50 [9]: 22.2 µM (inactive)
- GI50 [10]: 16.3 µM (inactive)
- GI50 [11]: 27.1 µM (inactive)
- GI50 [12]: 27.2 µM (inactive)
- GI50 [13]: 5.74 µM (inactive)
- GI50 [14]: 16.7 µM (inactive)
- GI50 [15]: 16.5 µM (inactive)
- GI50 [16]: 29.5 µM (inactive)
- GI50 [17]: 15.8 µM (inactive)
- GI50 [18]: 24.7 µM (inactive)
- GI50 [19]: 28.3 µM (inactive)
- GI50 [20]: 37.6 µM (inactive)
- GI50 [55]: 5.9 µM (inactive)
- GI50 [21]: 16.1 µM (inactive)
- GI50 [23]: 30.8 µM (inactive)
- GI50 [24]: 29.9 µM (inactive)
- GI50 [25]: 18.4 µM (inactive)
- GI50 [26]: 15.1 µM (inactive)
- GI50 [27]: 23.7 µM (inactive)
- GI50 [28]: 25.5 µM (inactive)
- GI50 [29]: 23.1 µM (inactive)
- GI50 [30]: 35.5 µM (inactive)
- GI50 [31]: 23.9 µM (inactive)
- GI50 [32]: 55.6 µM (inactive)
- GI50 [33]: 32.1 µM (inactive)
- GI50 [34]: 26.1 µM (inactive)
- GI50 [35]: 5.71 µM (inactive)
- GI50 [36]: 12.7 µM (inactive)
- GI50 [37]: 24.1 µM (inactive)
- GI50 [38]: 24.6 µM (inactive)
- GI50 [39]: 17.3 µM (inactive)
- GI50 [40]: 27.8 µM (inactive)
- GI50 [57]: > 100 µM (inactive)
- GI50 [41]: 14.1 µM (inactive)
- GI50 [42]: 28.8 µM
- GI50 [43]: 24 µM (inactive)
- GI50 [44]: 5.7 µM (inactive)
- GI50 [45]: 27.1 µM (inactive)
- GI50 [46]: 16.6 µM (inactive)
- GI50 [47]: 32.3 µM (inactive)
- GI50 [48]: 23.2 µM (inactive)
- GI50 [49]: 34.4 µM (inactive)
- GI50 [58]: > 100 µM (inactive)
- GI50 [50]: 15.1 µM (inactive)
- GI50 [51]: 17.8 µM (inactive)

From ChEMBL document CHEMBL1201862, “PubChem BioAssay data set” (2004)
